The test system of one test is DMT1. As to the kind of experiment: Duodenal gene expression by RT-qPCR: DMT1. It counts as in vivo, Gallus gallus. As to conditions: 1.25 wt. % genistein vs no injection and H2O controls, p < 0.05; duodenum. The method, then:
(§1) Cornish-cross fertile broiler eggs (Gallus gallus, n = 39) were obtained from a commercial hatchery (Moyer’s chicks, Quakertown, PA, USA). The eggs were incubated under optimal conditions at the Cornell University Animal Science Poultry Farm Incubator [18]. All animal protocols were approved by Cornell University Institutional Animal Care and Use committee (IACUC #2020-0077). At day 17 of embryonic incubation, eggs containing viable embryos were weighed and divided into 5 groups, with all treatment groups assigned eggs of similar weight frequency distribution. Each group was then injected with the specific solution (1 mL per egg) with a 21-gauge needle into the amniotic fluid. Treatments in powder form were separately diluted in DI H2O. […]
(§2) Total RNA was extracted from 30 mg of the proximal duodenal (n=6) or liver tissues (n=6) using Qiagen RNeasy Mini Kit (Qiagen Inc., Valencia, CA) according to the manufacturer’s protocol. […] RNA was quantified by absorbance at 260-280 nm using a NanoDrop 2000 (ThermoFisher Scientific, Waltham, MA). […]
(§3) As previously described. cDNA was generated using a 20 uL reverse transcriptase (RT) reaction in a BioRad C1000 touch thermocycler using the Improm-II Reverse Transcriptase Kit (Catalog #A1250; Promega, Madison, WI, USA). […] Genomic DNA contamination was assessed using a RT-PCR assay for the reference of genes samples. […]
For orientation: Quantitative PCR measures a nucleic acid by following its amplification.

For test [1] the following is noted: maternal intake perinatally and throughout pregnancy, mice; cited from earlier work.
The subject of another test is DcytB. In words: Duodenal gene expression by RT-qPCR: DcytB. It counts as in vivo, Gallus gallus. Conditions: genistein treatment groups vs no injection, H2O and inulin, p < 0.05; duodenum. The method, then:
as §1, §2, §3

The next test concerns glial cells. Conditions: via ceruloplasmin and ferroportin-1; cited from earlier work.
The test system of a further test is hepcidin. Conditions: human hepatocytes; cited from earlier work.

In the case of `O=c1c(-c2ccc(O)cc2)coc2cc(O)cc(O)c12` [Genistein, genistein], the “Gene expression of DMT1” value in the test with DMT1 was “downregulated”. The “Harmful effects of a high-fat fed diet in dams and offspring” value in test [1] was “mitigated”. Also, the “Gene expression of DcytB” value with DcytB was “significantly downregulated”. Besides, in the test on glial cells, the Fe export entry is recorded as “significantly increased”. For the same compound, the “Hepcidin transcription levels and promoter activity” value with hepcidin is reported as “increased”.
